Experimental data published in patent EP4410314A1, “COMBINATION THERAPY COMPRISING ANTI-CD22 ANTIBODY-DRUG CONJUGATE AND IRAK1 INHIBITOR” (ADC Therapeutics SA, priority 2023, dated 2024).

Key:
[1] = system: CD22; assay: CD22 cell surface expression after chidamide treatment, flow cytometry; format: cell-based; details: chidamide 0.25 or 0.5 µM for 7 days; Ramos, TMD8, and SU-DHL-4 cell lines
Procedure: Chidamide (Selleckchem) was dissolved in dimethyl sulfoxide (DMSO) according to the manufacturer's instructions. Cells were treated with chidamide (0.25 or 0.5 µM) for 7 days at 37°C in a 5% carbon dioxide-gassed, humidified incubator. On day 3, cells were centrifuged, and fresh medium containing the corresponding concentrations of chidamide was added. The control group was treated with equal volumes of DMSO.
CD22 cell surface expression after chidamide treatment was measured by flow cytometry. hLL2-C220 and B12 antibodies, followed by Alexa Fluor 488 anti-human secondary antibodies (Life Technologies, Thermo Fisher Scientific) or allophycocyanin anti-human secondary antibodies (BioLegend), were used for CD22 detection. Cells were analyzed using a CytoFLEX Flow Cytometer (Beckman Coulter), and data were analyzed with FlowJo software version 10.8.1 (BD Biosciences).

[2] = system: MEC-2; assay: In vitro cytotoxicity, MEC-2; format: cell-based, human; details: MEC-2 (CLL), CD22-positive; mean ± SEM
[3] = system: NAMALWA; assay: In vitro cytotoxicity, NAMALWA; format: cell-based, human; details: NAMALWA (BL), CD22-positive; mean ± SEM
[4] = system: NALM-6; assay: In vitro cytotoxicity, NALM-6; format: cell-based, human; details: NALM-6 (B-ALL), CD22-positive; mean ± SEM
[5] = system: SUP-T1; assay: In vitro cytotoxicity, SUP-T1; format: cell-based, human; details: SUP-T1 (T-LL), CD22-negative; mean ± SEM
[6] = system: REH; assay: In vitro cytotoxicity, REH; format: cell-based, human; details: REH (B-ALL), CD22-positive; mean ± SEM
[7] = system: KARPAS-299; assay: In vitro cytotoxicity, KARPAS-299; format: cell-based, human; details: KARPAS-299 (ALCL), CD22-negative; mean ± SEM
[8] = system: Daudi; assay: In vitro cytotoxicity, Daudi; format: cell-based, human; details: Daudi (BL), CD22-positive; mean ± SEM
[9] = system: KARPAS-299; assay: DNA interstrand crosslinks, single cell gel electrophoresis (Comet) assay, KARPAS-299; format: cell-based, human; details: KARPAS-299 (CD22-negative), over 48 hours following a 2-hour treatment
Procedure: (§1) Quantification of in vitro DNA interstrand crosslinks (ICLs) was performed using the single cell gel electrophoresis (Comet) assay.
(§2) DNA ICLs were measured using a modification of the single-cell gel electrophoresis (Comet) assay, and crosslinking was expressed as the percentage decrease in Olive tail moment (OTM) versus control irradiated cells. […] Immediately after the drug incubation period, a low level of ICLs (3%) was observed, which increased over time to near peak levels (≈50%) at 12 hours and persisted up to 48 hours. […] In this cell line, SG3199 produced a high level of ICL (≈50%), similar to that observed in the Ramos cell line.

[10] = system: SEM cells; assay: In vitro cytotoxicity, SEM; format: cell-based, human; details: SEM (B-ALL), CD22-positive; mean ± SEM
[11] = system: Ramos; assay: In vitro cytotoxicity, Ramos; format: cell-based, human; details: Ramos (BL), CD22-positive; mean ± SEM
[12] = system: KM-H2; assay: In vitro cytotoxicity, KM-H2; format: cell-based, human; details: KM-H2 (HL), CD22-negative; mean ± SEM
[13] = system: Ramos cells; assay: DNA interstrand crosslinks, single cell gel electrophoresis (Comet) assay, Ramos; format: cell-based, human
Procedure: as §1, §2

[14] = system: GRANTA-519; assay: In vitro cytotoxicity, GRANTA-519; format: cell-based, human; details: GRANTA-519 (MCL), CD22-positive; mean ± SEM
[15] = system: DO HH-2; assay: In vitro cytotoxicity, DO HH-2; format: cell-based, human; details: DO HH-2 (FL), CD22-positive; mean ± SEM

Row | Compound | increase of CD22 expression compared with DMSO-treated cells (MFI fold change) [1] | IC50 [2] [nM] | IC50 [3] [nM] | IC50 [4] [nM] | IC50 [5] [nM] | IC50 [6] [nM] | IC50 [7] [nM] | IC50 [8] [nM] | DNA ICLs, percentage decrease in Olive tail moment (OTM) versus control irradiated cells [9] | IC50 [10] [nM] | IC50 [11] [nM] | IC50 [12] [nM] | DNA ICLs, percentage decrease in Olive tail moment (OTM) versus control irradiated cells ([13]; 2-hour exposure, immediately after the drug incubation period) [%] | DNA ICLs, percentage decrease in Olive tail moment (OTM) versus control irradiated cells ([13]; after 2 hours following drug incubation) [%] | persistence of DNA ICLs ([13]; following 2-hour exposure) | IC50 [14] [nM] | IC50 [15] [nM]
1 | Nc1cc(F)ccc1NC(=O)c1ccc(CNC(=O)/C=C/c2cccnc2)cc1 [chidamide] | up to 2.4 times |  |  |  |  |  |  |  |  |  |  |  |  |  |  |  | 
2 | COc1cc2c(cc1OCCCCCOc1cc3c(cc1OC)C(=O)N1C=C(C)C[C@H]1C=N3)N=C[C@@H]1CC(C)=CN1C2=O [SG3199] |  | 0.033 ± 0.009 | 0.014 ± 0.001 | 0.002 | 0.026 ± 0.005 | 0.001 | 0.025 ± 0.001 | 0.008 ± 0.001 | ≈ 50% | 0.005 ± 0.002 | 0.016 ± 0.001 | 0.036 ± 0.005 | 46 | 56 | up to 48 hours | 0.002 | 0.007 ± 0.001
